Laboratory results as given in patent US20200360471A1, “METHODS OF TREATING AND PREVENTING VIRAL INFECTIONS” (priority 2017, published 2020).
Peptide text beside a SMILES is read from it. * marks the point of attachment. Decanoyl = CCCCCCCCCC(=O)*; CH2Cl = ClC*

How the values were obtained:
HPVS PsV = conditions: read-out: IC50, inhibition of uptake of HPVS PsV; PsV 1:6000 dilution, 293TT cells
Experimental: Pseudovirus (PsV) of HPVS was prepared using method described by Buck et al, (Journal of Virology, January 2004; 751-757) and used as a model HPV in this study. The PsV stocks were prepared by co-transfecting human 293TT cells with HPVS viral plasmid p5Shell containing codon-modified papillomavirus capsid genes for L1 and L2 proteins, and pcLucF reporter plasmid containing the luciferase gene for detecting viral infection. The cell lysates containing the capsidized virus was used as the PsV stock. Optimal PsV dilution factor was determined based on the luciferase activity in 293TT cells infected with serially diluted HPVS PsV.
Data were collected on a Molecular Devices Flexstation 3 Microplate Reader using Softmax Pro v5.4.4. Data analysis was performed on Prism software using four parameter logistic model. […] Furin Inhibitor I was used as a positive control for HPVS PsV inhibition since it blocks the viral entry into host cells.
Two runs were performed for each dilution level.

TLR7 [1] = test: Ongoing inflammation in PBMC cultures: imiquimod 3 hrs followed by omiganan 21 hrs; type: cell-based, human; conditions: imiquimod alone, PBMC
Experimental: (§1) Primary cell cultures were prepared in RPMI including 5% autologous plasma. Isolated PBMC cells were cultured in 96-well plates at a density of 0.5×10^6cells/well at 37° C., under humidified 5% CO2.
(§2) IL-1β, TNFα, IL-6 and IL-8 were measured simultaneously with a fixed electrochemoluminescence platform based on the sandwich ELISA principle of capture and detection antibodies, produced by MESO SCALE DISCOVERY (MSD, MESO SCALE QUICKPLEX SQ120). The applied assay was the V-PLEX PLUS pro-inflammatory cytokine panel II, including IL-1β, TNFα, IL-6 and IL-8. This assay includes manufacturer-provided control samples with indicated nominal values for comparison. These lyophilized controls, i.e. freeze-dried controls for IL-1β, TNFα, IL-6, IL-8, were prepared freshly at the time of use. QC samples were prepared from the calibrator at 3 different concentrations along the standard curve as multiple aliquots from a single batch and maintained at −20° C. Low, medium and high concentration controls were included in every multiplex assay run to control intra- and inter-assay variation. V-PLEX panels are specific for the detection of human chemokines and cytokines, and combinations have been validated by the manufacturer, to ensure no cross-reactivity.
Briefly, PBMC primary cultures were prepared from 4 donors. […] The readouts for the following cytokine and chemokine release were measured: IL-1β, IL-2, IL-4, IL-6, IL-8 HA, IL-8, IL-12p70, IL-13, IFN-γ, and TNF-α were measured. The cultures were prepared in duplicate.

TLR3/RIG-1/Mda5 = test: polyI:C-induced cytokine responses in PBMC cultures with peptide pre-treatment; type: cell-based, human; conditions: 5 or 25 μg/mL peptide, 30 min pre-treatment, 24 hrs
Experimental: as §1, §2
(§3) IFNα was quantified by a sandwich ELISA based on specific capture and detection antibodies for various matrices (MABTECH), according to the manufacturer's instructions. QC samples were prepared from the calibrator at 3 different concentrations along the standard curve as multiple aliquots from a single batch and maintained at −20° C.
as §3, with “IFNβ” for “IFNα”, “(PBL ASSAY SCIENCE),” for “(MABTECH),”, “C. freezer.” for “C.”
(§4) Briefly, PBMC primary cultures were prepared from 4 healthy donors (2 males, 2 females) as described above. […] The cultures were prepared in duplicate and the readouts for pan-IFNα and IFNβ (ELISA) were measured once. Five-point concentration-response curves were constructed for the various treatment conditions in the PBMC cultures, freshly isolated from 4 subjects.

TLR7 [2] = test: imiquimod-induced cytokine responses in PBMC cultures with peptide pre-treatment; type: cell-based, human
Experimental: as §1, §2, §3
as §3, with “IFNβ” for “IFNα”, “(PBL ASSAY SCIENCE),” for “(MABTECH),”, “C. freezer.” for “C.”
as §4

[3] = system: toll-like receptor 3 (TLR3) pathways / RIG-1/Mda5; test: Qualification of the polyI:C PBMC challenge (cytokine release, 24 hrs); type: cell-based, human
Experimental: Peripheral Blood Mononuclear Cells (PBMCs) were isolated from sodium heparinized blood samples from healthy donors using SEPMATE with LYMPHOPREP ([…] TECHNOLOGIES) based on ficoll density centrifugation. Primary cell cultures were prepared in RPMI including 5% autologous plasma. Isolated PBMC cells were cultured in 96-well plates at a density of 0.5×10^6cells/well at 37° C., under humidified 5% CO2.
IL-1β, TNFα, IL-6 and IL-8 were measured simultaneously with a fixed electrochemoluminescence platform based on the sandwich ELISA principle of capture and detection antibodies, produced by MESO SCALE DISCOVERY (MSD, MESO SCALE QUICKPLEX SQ120). The applied assay was the V-PLEX PLUS pro-inflammatory cytokine panel II, including IL-1β, TNFα, IL-6 and IL-8. This assay includes manufacturer-provided control samples with indicated nominal values for comparison. These lyophilized controls, i.e. freeze-dried controls for IL-1β, TNFα, IL-6, IL-8, were prepared freshly at the time of use. […]
IFNα was quantified by a sandwich ELISA based on specific capture and detection antibodies for various matrices (MABTECH), according to the manufacturer's instructions. […]
IFNβ was quantified by a sandwich ELISA based on specific capture and detection antibodies for various matrices (PBL ASSAY SCIENCE), according to the manufacturer's instructions. […]

[4] = 5 or 25 μg/mL peptide, 30 min pre-treatment, 24 hrs
[5] = right-shift of imiquimod concentration response curves

CCCCCCCCCC(=O)N[C@@H](CCCN=C(N)N)C(=O)N[C@H](C(=O)N[C@@H](CCCCN)C(=O)N[C@@H](CCCN=C(N)N)C(=O)CCl)C(C)C [Furin Inhibitor I, reference compound] (Decanoyl-RVKR-CH2Cl)
IC50 (HPVS PsV): 200 nM

CC(C)Cn1cnc2c(N)nc3ccccc3c21 [Imiquimod, imiquimod]
concentration-effect relationship for IL-6 and TNF-α (TLR7 [1]): bell-shaped | imiquimod concentration inducing IL-6 release (TLR7 [1]): exceeding 0.4 μg/ml | imiquimod concentration inducing IL-8 release (TLR7 [1]): exceeding 0.4 μg/ml | imiquimod concentration inducing TNF-α release (TLR7 [1]): exceeding 0.4 μg/ml | imiquimod concentration needed for IL-10 release (TLR7 [1]): exceeding 2 μg/ml

LLGDFFRKSKEKIGKEFKRIVQRIKDFLRNLVPRTES (LLGDFFRKSKEKIGKEFKRIVQRIKDFLRNLVPRTES; LL-37 peptide) [antimicrobial peptide belonging to the cathelicidin family, synthesized by ANASPEC]
IL-6 responses to polyI:C (TLR3/RIG-1/Mda5) (TLR3/RIG-1/Mda5): did not significantly affect | TNFα responses to polyI:C (TLR3/RIG-1/Mda5) (TLR3/RIG-1/Mda5): did not significantly affect | polyI:C-driven IL-1β release (TLR3/RIG-1/Mda5): did not significantly affect | spontaneous and polyI:C-driven IL-8 release (TLR3/RIG-1/Mda5): strongly inhibited | interferon responses induced by polyI:C stimulation (TLR3/RIG-1/Mda5; PBMC of 4 donors): enhanced | IL-6 responses to imiquimod (TLR7) (TLR7 [2]; [4]): inhibited | TNFα responses to imiquimod (TLR7) (TLR7 [2]; [4]): inhibited | interferon responses in the presence of imiquimod (TLR7 [2]; 5 or 25 μg/mL peptide, 30 min pre-treatment, 24 hrs, PBMC of 4 donors): induced strong interferon responses | IL-1(3 responses to imiquimod (TLR7)) (TLR7 [2]; [5]): inhibited | IL-8 responses to imiquimod (TLR7) (TLR7 [2]; [5]): inhibited

PolyI:C
PBMC response (cytokines) ([3]; absence of the transfection carrier Lyovec): mild PBMC response | PBMC response (cytokines) ([3]; presence of Lyovec transfection carrier): substantial polyI:C-driven responses
